Target: T1, AHR (UniProt P35869)
T1 sequence (P35869 1-848): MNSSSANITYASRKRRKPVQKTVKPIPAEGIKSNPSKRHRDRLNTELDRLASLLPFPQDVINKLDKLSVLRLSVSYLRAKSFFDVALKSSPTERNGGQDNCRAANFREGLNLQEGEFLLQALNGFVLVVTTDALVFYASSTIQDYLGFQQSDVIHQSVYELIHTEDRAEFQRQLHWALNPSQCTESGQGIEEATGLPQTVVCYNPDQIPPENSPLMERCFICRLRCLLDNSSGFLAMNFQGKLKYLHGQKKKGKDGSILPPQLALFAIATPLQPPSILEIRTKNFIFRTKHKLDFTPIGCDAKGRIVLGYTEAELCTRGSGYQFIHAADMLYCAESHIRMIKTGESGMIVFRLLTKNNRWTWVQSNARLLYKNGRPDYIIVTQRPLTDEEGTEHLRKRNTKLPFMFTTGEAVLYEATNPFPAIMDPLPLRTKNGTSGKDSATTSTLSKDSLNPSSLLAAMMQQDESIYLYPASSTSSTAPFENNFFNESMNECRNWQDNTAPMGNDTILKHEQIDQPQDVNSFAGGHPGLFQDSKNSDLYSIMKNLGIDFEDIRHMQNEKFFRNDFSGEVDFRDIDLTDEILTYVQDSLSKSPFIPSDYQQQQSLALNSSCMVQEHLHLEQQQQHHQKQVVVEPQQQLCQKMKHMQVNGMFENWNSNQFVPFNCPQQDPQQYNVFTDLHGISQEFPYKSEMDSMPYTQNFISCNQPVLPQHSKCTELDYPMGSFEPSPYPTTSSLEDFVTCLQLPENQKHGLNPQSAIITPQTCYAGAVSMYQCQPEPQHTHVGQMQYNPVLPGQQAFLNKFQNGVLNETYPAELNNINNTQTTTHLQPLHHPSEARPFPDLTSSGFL
Test: DRE-Luciferase Reporter Assay (Alternate Method), Example 1B
Assay type: cell-based
Settings: concentration which inhibits half of the luciferase activity induced by AHR activating ligand; DRE-luciferase reporter cell line
Protocol: AHR binds to Dioxin Responsive Elements (DRE) upstream of genes that it activates. One measure of AHR activity is activation of a reporter gene, such as luciferase, downstream of one or multiple DRE elements. Luciferase activity will reflect activation and inhibition of AHR in the cells expressing his reporter.
Murine Hepa1-6 or Hepa-1c1c7 or other murine cell line with a DRE-luciferase reporter either stably or transiently transfected were plated in media in plates (96-well, 384-well or other plates) and incubated overnight at 37° C. in a C02 incubator or compound and agonist were added at the time of plating. Likewise, human HepG2 or other human cell line with a DRE-luciferase reporter either stably or transiently transfected were plated in media in plates (96-well, 384-well or other plates) and incubated overnight at 37° C. in a C02 incubator or compound and agonist were added at the time of plating.
At the time that cells are plated or following incubation overnight, an AHR activating ligand, such as TCDD, kynurenine, ITE (2-(1H-indole-3-ylcarbonyl)-4-thiazolecarboxylic methyl ester), VAF347, BNF (beta-naphthoflavone), FICZ (6-formylindolo(3,2-b) carbazole or other AHR ligands, was added with or without AHR antagonist.
Cells were incubated for 4, 15 or 24 hours or another time point and then lysed for determination of luciferase activity as a read-out of the AHR activation or inhibition. Luciferase was measured with a commercial kit such as the Promega Luciferase kit or any kit or reagents that provide the luciferin substrate for measuring luciferase activity. The level of luciferase with only activating ligand added was the maximum signal while the luciferase with no ligand was the minimum signal. IC50 values were determined as the concentration which inhibits half of the luciferase activity.

IC50 [µM] | SMILES
> 1.5 | CC(C)c1cnn2c(N[C@@H]3CCc4[nH]c5cnccc5c4C3)nc(-c3cncc(F)c3)nc12 [Compound I-13a, (6R)—N-[2-(5-fluoro-3-pyridyl)-8-isopropyl-pyrazolo[1,5-a][1,3,5]triazin-4-yl]-6,7,8,9-tetrahydro-5H-pyrido[3,4-b]indol-6-amine]
> 1.5 | CC(C)c1cnn2c(N[C@H]3CCc4[nH]c5cnccc5c4C3)nc(-c3cncc(F)c3)nc12 [Compound I-13b, (6S)—N-[2-(5-fluoro-3-pyridyl)-8-isopropyl-pyrazolo[1,5-a][1,3,5]triazin-4-yl]-6,7,8,9-tetrahydro-5H-pyrido[3,4-b]indol-6-amine]
1 to 1.5 | Cc1cnc2c(N[C@@H]3CCc4[nH]c5ccccc5c4C3)nc(-c3cncc(F)c3)nc2c1 [Compound I-14, (3R)—N-[2-(5-fluoro-3-pyridyl)-7-methyl-pyrido[3,2-d]pyrimidin-4-yl]-2,3,4,9-tetrahydro-1H-carbazol-3-amine]
> 1.5 | CC(C)c1cnn2c(N[C@@H]3CCc4[nH]c5ccccc5c4C3)nc([C@@H]3CCCOC3)nc12 [Compound I-15a, (3R)—N-(8-isopropyl-2-tetrahydropyran-3-yl-pyrazolo[1,5-a][1,3,5]triazin-4-yl)-2,3,4,9-tetrahydro-1H-carbazol-3-amine]
> 1.5 | CC(C)c1cnn2c(N[C@@H]3CCc4[nH]c5ccccc5c4C3)nc([C@H]3CCCOC3)nc12 [Compound I-15b, (3R)—N-[8-isopropyl-2-[(3R)-tetrahydropyran-3-yl]pyrazolo[1,5-a][1,3,5]triazin-4-yl]-2,3,4,9-tetrahydro-1H-carbazol-3-amine]
> 1.5 | CC(C)c1cnn2c(N[C@@H]3CCc4[nH]c5ccccc5c4C3)nc(-n3cncn3)nc12 [Compound I-16, (3R)—N-[8-Isopropyl-2-(1,2,4-triazol-1-yl)pyrazolo[1,5-a][1,3,5]triazin-4-yl]-2,3,4,9-tetrahydro-1H-carbazol-3-amine]
0.5 to 1 | CC(C)c1cnn2c(N[C@@H]3CCc4[nH]c5ccccc5c4C3)nc(C3CCOC3)nc12 (stereo partly drawn) [Compound I-17, (3R)—N-(8-isopropyl-2-tetrahydrofuran-3-yl-pyrazolo[1,5-a][1,3,5]triazin-4-yl)-2,3,4,9-tetrahydro-1H-carbazol-3-amine]
< 0.5 | Fc1cncc(-c2nc(N[C@@H]3CCc4[nH]c5ccccc5c4C3)n3ncc(C4CCOC4)c3n2)c1 (stereo partly drawn) [Compound I-18, (3R)—N-[2-(5-fluoro-3-pyridyl)-8-tetrahydrofuran-3-yl-pyrazolo[1,5-a][1,3,5]triazin-4-yl]-2,3,4,9-tetrahydro-1H-carbazol-3-amine]
> 1.5 | Cc1nccn1-c1nc(N[C@@H]2CCc3[nH]c4ccccc4c3C2)n2ncc(C(C)C)c2n1 [Compound I-19, (3R)—N-[8-Isopropyl-2-(2-methylimidazol-1-yl)pyrazolo[1,5-a][1,3,5]triazin-4-yl]-2,3,4,9-tetrahydro-1H-carbazol-3-amine]

The next lines start with the compound.

SMILES | IC50 [µM]
CC(C)c1cnn2c(N[C@@H]3CCc4[nH]c5ccccc5c4C3)nc(-c3ccn(C)c(=O)c3)nc12 [Compound I-1, 4-[8-Isopropyl-4-[[(3R)-2,3,4,9-tetrahydro-1H-carbazol-3-yl]amino]pyrazolo[1,5-a][1,3,5]triazin-2-yl]-1-methyl-pyridin-2-one] | > 1.5
CC(C)c1cnn2c(N[C@@H]3CCc4[nH]c5ccccc5c4C3)nc(-c3ccc(N4CCOCC4)nc3)nc12 [Compound I-2, (3R)—N-[8-Isopropyl-2-(6-morpholino-3-pyridyl)pyrazolo[1,5-a][1,3,5]triazin-4-yl]-2,3,4,9-tetrahydro-1H-carbazol-3-amine] | > 1.5
COc1cncc(-c2nc(N[C@@H]3CCc4[nH]c5ccccc5c4C3)n3ncc(C(C)C)c3n2)c1 [Compound I-3, (3R)—N-[8-Isopropyl-2-(5-methoxy-3-pyridyl)pyrazolo[1,5-a][1,3,5]triazin-4-yl]-2,3,4,9-tetrahydro-1H-carbazol-3-amine] | > 1.5
NCc1cnn2c(N[C@@H]3CCc4[nH]c5ccccc5c4C3)nc(-c3cncc(F)c3)nc12 [Compound I-4, (3R)—N-[8-(Aminomethyl)-2-(5-fluoro-3-pyridyl)pyrazolo[1,5-a][1,3,5]triazin-4-yl]-2,3,4,9-tetrahydro-1H-carbazol-3-amine] | < 0.5
CC(C)c1cnn2c(N[C@@H]3CCc4[nH]c5ccccc5c4C3)nc(-c3cncc(N(C)C)c3)nc12 [Compound I-5, (3R)—N-[2-[5-(Dimethylamino)-3-pyridyl]-8-isopropyl-pyrazolo[1,5-a][1,3,5]triazin-4-yl]-2,3,4,9-tetrahydro-1H-carbazol-3-amine] | > 1.5
CC(C)c1cnn2c(N[C@@H]3CCc4[nH]c5ccccc5c4C3)nc(-c3ccc(N(C)C)nc3)nc12 [Compound I-6, (3R)—N-[2-[6-(dimethylamino)-3-pyridyl]-8-isopropyl-pyrazolo[1,5-a][1,3,5]triazin-4-yl]-2,3,4,9-tetrahydro-1H-carbazol-3-amine] | > 1.5
CC(C)c1cnn2c(N[C@@H]3CCc4[nH]ncc4C3)nc(-c3cncc(F)c3)nc12 [Compound I-7a, 2-(5-fluoro-3-pyridyl)-8-isopropyl-N-[(5R)-4,5,6,7-tetrahydro-1H-indazol-5-yl]pyrazolo[1,5-a][1,3,5]triazin-4-amine] | > 1.5
CC(C)c1cnn2c(N[C@H]3CCc4[nH]ncc4C3)nc(-c3cncc(F)c3)nc12 [Compound I-7b, 2-(5-fluoro-3-pyridyl)-8-isopropyl-N-[(5S)-4,5,6,7-tetrahydro-1H-indazol-5-yl]pyrazolo[1,5-a][1,3,5]triazin-4-amine] | 1 to 1.5
CC(C)c1cnn2c(N[C@H]3CCc4[nH]c5cccnc5c4C3)nc(-c3cncc(F)c3)nc12 [Compound I-8a, (8S)—N-[2-(5-Fluoro-3-pyridyl)-8-isopropyl-pyrazolo[1,5-a][1,3,5]triazin-4-yl]-6,7,8,9-tetrahydro-5H-pyrido[3,2-b]indol-8-amine] | 1 to 1.5
CC(C)c1cnn2c(N[C@@H]3CCc4[nH]c5cccnc5c4C3)nc(-c3cncc(F)c3)nc12 [Compound I-8b, (8R)—N-[2-(5-Fluoro-3-pyridyl)-8-isopropyl-pyrazolo[1,5-a][1,3,5]triazin-4-yl]-6,7,8,9-tetrahydro-5H-pyrido[3,2-b]indol-8-amine] | 1 to 1.5
CC(C)(O)c1cnn2c(N[C@@H]3CCc4[nH]c5ccccc5c4C3)nc(-c3cncc(F)c3)nc12 [Compound I-9, 2-[2-(5-Fluoro-3-pyridyl)-4-[[(3R)-2,3,4,9-tetrahydro-1H-carbazol-3-yl]amino]pyrazolo[1,5-a][1,3,5]triazin-8-yl]propan-2-ol] | < 0.5
Fc1cncc(-c2nc(N[C@@H]3CCc4[nH]c5ccccc5c4C3)n3ncc(-c4cnn[nH]4)c3n2)c1 [Compound I-10, (3R)—N-[2-(5-Fluoro-3-pyridyl)-8-(1H-triazol-5-yl)pyrazolo[1,5-a][1,3,5]triazin-4-yl]-2,3,4,9-tetrahydro-1H-carbazol-3-amine] | < 0.5
C=C(C)c1cnn2c(N[C@@H]3CCc4[nH]c5ccccc5c4C3)nc(-c3cncc(F)c3)nc12 [Compound I-11, (3R)—N-[2-(5-Fluoro-3-pyridyl)-8-isopropenyl-pyrazolo[,5-a][1,3,5]triazin-4-yl]-2,3,4,9-tetrahydro-1H-carbazol-3-amine] | < 0.5
CC(C)c1cnn2c(N[C@@H]3CCc4[nH]c5ccccc5c4C3)nc(-n3cnc4ccccc43)nc12 [Compound I-12, (3R)—N-[2-(Benzimidazol-1-yl)-8-isopropyl-pyrazolo[1,5-a][1,3,5]triazin-4-yl]-2,3,4,9-tetrahydro-1H-carbazol-3-amine] | 1 to 1.5

Reference: patent US20220144839A1, “INDOLE AHR INHIBITORS AND USES THEREOF” (Ikena Oncology, Inc., priority 2018, published 2022)
